Laboratory results reported in patent US12539292B2, “BRM targeting compounds and associated methods of use” (Arvinas Operations, Inc., priority 2018, dated 2026).
Read-outs that look alike come from different tables or passages of the source.

Target: T1, BRM (Homo sapiens, UniProt P51531)
T1 construct: In-Cell Western Screen of BRM Degradation in SW1573 Cells; endogenous in cells; host or cells: SW1573
Assay: In-cell Western screen of BRM degradation in SW1573 cells (Dmax and DC50)
Assay type: cell-based
Method in brief: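 After adhering overnight, cells received compound for 18-20 hours. They were then washed in cold DPBS, fixed with 4% PFA for 20 min and permeabilized for 30 min. Blocking and fluorescent secondary staining followed before imaging.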

[1] = BRM degradation, SW1573 cells, read-out: DC50
[2] = BRM degradation, SW1573 cells, read-out: Dmax (% degraded)
[3] = SW1573, % degraded, when tested at the top concentration of between 0.3 and 10 μM, read-out: BRM Dmax (%)
[4] = BRM degradation, SW1573 cells, tested at the top concentration of between 0.3 and 10 μM, read-out: Dmax (%) (% degraded)
[5] = target protein degradation, read-out: BRM DC50
[6] = degradation of BRM, read-out: BRM DC50

T1 sequence (P51531 whole entry): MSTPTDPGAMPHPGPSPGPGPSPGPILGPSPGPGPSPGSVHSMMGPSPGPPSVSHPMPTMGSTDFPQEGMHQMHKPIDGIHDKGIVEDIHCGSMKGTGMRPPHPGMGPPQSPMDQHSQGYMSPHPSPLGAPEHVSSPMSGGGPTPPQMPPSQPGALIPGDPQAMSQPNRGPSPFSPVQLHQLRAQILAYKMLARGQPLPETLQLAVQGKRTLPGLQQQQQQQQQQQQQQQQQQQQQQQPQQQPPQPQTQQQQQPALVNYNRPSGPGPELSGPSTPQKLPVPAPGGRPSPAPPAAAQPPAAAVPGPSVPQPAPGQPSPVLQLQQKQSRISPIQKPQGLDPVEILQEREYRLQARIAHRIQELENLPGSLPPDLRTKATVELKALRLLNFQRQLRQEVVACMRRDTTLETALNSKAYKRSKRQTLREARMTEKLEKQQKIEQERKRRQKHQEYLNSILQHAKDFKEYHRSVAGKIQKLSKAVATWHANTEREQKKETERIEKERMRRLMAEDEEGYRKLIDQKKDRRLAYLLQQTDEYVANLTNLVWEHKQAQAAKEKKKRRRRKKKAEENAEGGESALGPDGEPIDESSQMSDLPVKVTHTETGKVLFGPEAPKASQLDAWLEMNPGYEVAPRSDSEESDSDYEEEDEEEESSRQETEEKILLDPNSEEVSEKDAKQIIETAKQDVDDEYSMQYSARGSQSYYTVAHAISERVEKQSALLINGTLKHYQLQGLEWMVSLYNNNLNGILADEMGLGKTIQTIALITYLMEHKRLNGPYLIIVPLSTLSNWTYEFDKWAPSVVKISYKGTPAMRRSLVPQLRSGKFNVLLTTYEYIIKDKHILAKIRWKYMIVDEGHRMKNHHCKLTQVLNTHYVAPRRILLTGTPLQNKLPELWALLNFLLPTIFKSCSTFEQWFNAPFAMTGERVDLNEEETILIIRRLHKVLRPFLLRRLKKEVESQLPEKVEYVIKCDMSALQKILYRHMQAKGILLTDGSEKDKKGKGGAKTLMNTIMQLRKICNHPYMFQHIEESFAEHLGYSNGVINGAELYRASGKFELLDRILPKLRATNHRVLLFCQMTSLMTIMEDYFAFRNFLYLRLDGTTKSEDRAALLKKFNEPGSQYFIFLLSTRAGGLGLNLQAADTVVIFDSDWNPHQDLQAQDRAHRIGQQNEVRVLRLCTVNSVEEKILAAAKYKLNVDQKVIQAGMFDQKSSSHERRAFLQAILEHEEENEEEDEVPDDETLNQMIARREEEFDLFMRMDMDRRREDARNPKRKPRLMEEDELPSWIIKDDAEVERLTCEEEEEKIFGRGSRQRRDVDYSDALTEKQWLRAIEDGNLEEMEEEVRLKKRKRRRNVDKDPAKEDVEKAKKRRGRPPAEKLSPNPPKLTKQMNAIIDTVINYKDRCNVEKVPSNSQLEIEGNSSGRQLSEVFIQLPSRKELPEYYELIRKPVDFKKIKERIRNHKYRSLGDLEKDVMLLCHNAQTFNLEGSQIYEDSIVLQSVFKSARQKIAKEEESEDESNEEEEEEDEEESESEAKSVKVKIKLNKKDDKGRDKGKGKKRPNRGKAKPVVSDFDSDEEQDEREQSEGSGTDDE

## Cc1ncsc1-c1ccc([C@H](C)NC(=O)[C@@H]2C[C@@H](O)CN2C(=O)[C@@H](c2cc(OCCN3CCC(O[C@H]4C[C@H](Oc5cc(N6C7CCC6CN(c6cc(-c8ccccc8)nnc6N)C7)ccn5)C4)CC3)no2)C(C)C)cc1 [compound 537, (2S,4R)-1-((2R)-2-(3-(2-(4-((1r,3R)-3-((4-(3-(3-amino-6-phenylpyridazin-4-yl)-3,8-diazabicyclo[3.2.1]octan-8-yl)pyridin-2-yl)oxy)cyclobutoxy)piperidin-1-yl)ethoxy)isoxazol-5-yl)-3-methylbutanoyl)-4-hydroxy-N-((S)-1-(4-(4-methylthiazol-5-yl)phenyl)ethyl)pyrrolidine-2-carboxamide]
BRM degradation, SW1573 cells, Table 2D
  DC50: > 30 nM

## Cc1ncsc1-c1ccc([C@H](C)NC(=O)[C@@H]2C[C@@H](O)CN2C(=O)[C@@H](c2cc(OCCN3CC[C@H](O[C@H]4C[C@H](Oc5cc(N6C7CCC6CN(c6cc(-c8ccccc8O)nnc6N)C7)ccn5)C4)C[C@@H]3C)no2)C(C)C)cc1 (single isomer, unassigned) [compound 636]
[1]
  DC50: < 2.5 nM
[2]
  Dmax: > 75%

## Cc1ncsc1-c1ccc([C@H](C)NC(=O)[C@@H]2C[C@@H](O)CN2C(=O)[C@@H](c2cc(OCC[C@H]3CCN(C[C@H]4C[C@H](Oc5cc(N6C7CCC6CN(c6cc(-c8ccccc8O)nnc6N)C7)ccn5)C4)[C@H](C)C3)no2)C(C)C)cc1 [compound 535, (2S,4R)-1-((2R)-2-(3-(2-((2R,4S)-1-(((1r,3R)-3-((4-(3-(3-amino-6-(2-hydroxyphenyl)pyridazin-4-yl)-3,8-diazabicyclo[3.2.1]octan-8-yl)pyridin-2-yl)oxy)cyclobutyl)methyl)-2-methylpiperidin-4-yl)ethoxy)isoxazol-5-yl)-3-methylbutanoyl)-4-hydroxy-N-((S)-1-(4-(4-methylthiazol-5-yl)phenyl)ethyl)pyrrolidine-2-carboxamide]
BRM degradation, read-out: BRM DC50
  DC50: < 2.5 nM
[3]
  Dmax: > 75%

## Cc1ncsc1-c1ccc([C@H](C)NC(=O)[C@@H]2C[C@@H](O)CN2C(=O)[C@H](c2cc(OC/C=C/c3ccc(O[C@H]4C[C@H](Oc5cc(N6C7CCC6CN(c6cc(-c8ccccc8O)nnc6N)C7)ccn5)C4)cn3)no2)C(C)C)cc1 [compound 186, (2S,4R)-1-((2S)-2-(3-(((E)-3-(5-((1r,3S)-3-((4-(3-(3-amino-6-(2-hydroxyphenyl)pyridazin-4-yl)-3,8-diazabicyclo[3.2.1]octan-8-yl)pyridin-2-yl)oxy)cyclobutoxy)pyridin-2-yl)allyl)oxy)isoxazol-5-yl)-3-methylbutanoyl)-4-hydroxy-N-((S)-1-(4-(4-methylthiazol-5-yl)phenyl)ethyl)pyrrolidine-2-carboxamide]
[1]
  DC50: 10 to 30 nM
[4]
  Dmax: > 75%

## Cc1ncsc1-c1ccc([C@H](C)NC(=O)[C@@H]2C[C@@H](O)CN2C(=O)[C@@H](c2cc(OCCN3CCC(O[C@H]4C[C@H](OCC#CCn5cc(-c6cc(-c7ccccc7O)nnc6N)cn5)C4)CC3)no2)C(C)C)cc1 [compound 395, (2S,4R)-1-((R)-2-(3-(2-(4-((1r,3R)-3-((4-(4-(3-amino-6-(2-hydroxyphenyl)pyridazin-4-yl)-1H-pyrazol-1-yl)but-2-yn-1-yl)oxy)cyclobutoxy)piperidin-1-yl)ethoxy)isoxazol-5-yl)-3-methylbutanoyl)-4-hydroxy-N-((S)-1-(4-(4-methylthiazol-5-yl)phenyl)ethyl)pyrrolidine-2-carboxamide]
[3]
  Dmax: > 75%
[5]
  DC50: < 2.5 nM

## Cc1cc([C@H](C(=O)N2C[C@H](O)C[C@H]2C(=O)N[C@@H](C)c2ccc(-c3scnc3C)cc2)[C@@H](C)COCCOc2cc(N3C4CCC3CN(c3cc(-c5ccccc5O)nnc3N)C4)ccn2)on1 [compound 302, (2S,4R)-1-((2R,3R)-4-(2-((4-(3-(3-amino-6-(2-hydroxyphenyl)pyridazin-4-yl)-3,8-diazabicyclo[3.2.1]octan-8-yl)pyridin-2-yl)oxy)ethoxy)-3-methyl-2-(3-methylisoxazol-5-yl)butanoyl)-4-hydroxy-N-((S)-1-(4-(4-methylthiazol-5-yl)phenyl)ethyl)pyrrolidine-2-carboxamide]
[1]
  DC50: 10 to 30 nM
[4]
  Dmax: > 75%

## CC(C)[C@H](C(=O)N1C[C@H](O)C[C@H]1C(=O)N[C@@H](C)c1ccc(-n2ccnc2N)cc1)c1cc(N2CCC(CN3CCC(O[C@H]4C[C@H](Oc5cc(N6C7CCC6CN(c6cc(-c8ccccc8O)nnc6N)C7)ccn5)C4)CC3)CC2)no1 [compound 620, (2S,4R)-N-((S)-1-(4-(2-amino-1H-imidazol-1-yl)phenyl)ethyl)-1-((2S)-2-(3-(4-((4-((1r,3r)-3-((4-(3-(3-amino-6-(2-hydroxyphenyl)pyridazin-4-yl)-3,8-diazabicyclo[3.2.1]octan-8-yl)pyridin-2-yl)oxy)cyclobutoxy)piperidin-1-yl)methyl)piperidin-1-yl)isoxazol-5-yl)-3-methylbutanoyl)-4-hydroxypyrrolidine-2-carboxamide]
BRM degradation, SW1573 cells, Table 2D, read-out: *DC50
  DC50: > 30 nM

## Cc1ncsc1-c1ccc([C@H](C)NC(=O)[C@@H]2C[C@@H](OP(=O)(O)O)CN2C(=O)[C@@H](c2cc(OCCN3CCC(O[C@H]4C[C@H](Oc5cc(N6C7CCC6CN(c6cc(-c8ccccc8O)nnc6N)C7)ccn5)C4)CC3)no2)C(C)C)cc1 [compound 459, (3R,5S)-1-((2R)-2-(3-(2-(4-((1r,3R)-3-((4-(3-(3-amino-6-(2-hydroxyphenyl)pyridazin-4-yl)-3,8-diazabicyclo[3.2.1]octan-8-yl)pyridin-2-yl)oxy)cyclobutoxy)piperidin-1-yl)ethoxy)isoxazol-5-yl)-3-methylbutanoyl)-5-(((S)-1-(4-(4-methylthiazol-5-yl)phenyl)ethyl)carbamoyl)pyrrolidin-3-yl dihydrogen phosphate]
[3]
  Dmax: > 75%
[5]
  DC50: < 2.5 nM

## Cc1cc([C@@H](C(=O)N2C[C@H](O)C[C@H]2C(=O)N[C@@H](C)c2ccc(-c3scnc3C)cc2)[C@H](C)COCCCCN2C3CCC2CN(c2cc(-c4ccccc4O)nnc2N)C3)on1 [compound 424, (2S,4R)-1-((2S,3S)-4-(4-(3-(3-amino-6-(2-hydroxyphenyl)pyridazin-4-yl)-3,8-diazabicyclo[3.2.1]octan-8-yl)butoxy)-3-methyl-2-(3-methylisoxazol-5-yl)butanoyl)-4-hydroxy-N-((S)-1-(4-(4-methylthiazol-5-yl)phenyl)ethyl)pyrrolidine-2-carboxamide]
[6]
  DC50: > 30 nM

## Cc1ncsc1-c1ccc([C@H](C)NC(=O)[C@@H]2C[C@@H](O)CN2C(=O)[C@@H](c2cc(N3CCC(F)(CN4CCC(O[C@H]5C[C@H](Oc6cc(N7C8CCC7CN(c7cc(-c9ccccc9O)nnc7N)C8)ccn6)C5)CC4)CC3)no2)C(C)C)cc1 [compound 683, (2S,4R)-1-((2R)-2-(3-(4-((4-((1r,3r)-3-((4-(3-(3-amino-6-(2-hydroxyphenyl)pyridazin-4-yl)-3,8-diazabicyclo[3.2.1]octan-8-yl)pyridin-2-yl)oxy)cyclobutoxy)piperidin-1-yl)methyl)-4-fluoropiperidin-1-yl)isoxazol-5-yl)-3-methylbutanoyl)-4-hydroxy-N-((S)-1-(4-(4-methylthiazol-5-yl)phenyl)ethyl)pyrrolidine-2-carboxamide]
[1]
  DC50: < 2.5 nM
[2]
  Dmax: > 75%

## Cc1ncsc1-c1ccc([C@H](C)NC(=O)[C@@H]2C[C@@H](O)CN2C(=O)[C@@H](c2cc(OCCN3CCC(O[C@H]4C[C@H](C#C[C@H](C)n5cc(-c6cc(-c7ccccc7O)nnc6N)cn5)C4)CC3)no2)C(C)C)cc1 [compound 415, (2S,4R)-1-((R)-2-(3-(2-(4-((1S,3R)-3-((S)-3-(4-(3-amino-6-(2-hydroxyphenyl)pyridazin-4-yl)-1H-pyrazol-1-yl)but-1-yn-1-yl)cyclobutoxy)piperidin-1-yl)ethoxy)isoxazol-5-yl)-3-methylbutanoyl)-4-hydroxy-N-((S)-1-(4-(4-methylthiazol-5-yl)phenyl)ethyl)pyrrolidine-2-carboxamide]
[3]
  Dmax: > 75%
[6]
  DC50: < 2.5 nM

## Cc1ncsc1-c1ccc([C@H](C)NC(=O)[C@@H]2C[C@@H](O)CN2C(=O)C(C(C)C)n2cc(OCCN3CCN(CCOc4cc(N5C6CCC5CN(c5cc(-c7ccccc7O)nnc5N)C6)ccn4)CC3)cn2)cc1 (stereo in doubt) [compound 39, (2S,4R)-1-[(2S)-2-[4-[2-(4-[2-[(4-[3-[3-amino-6-(2-hydroxyphenyl)pyridazin-4-yl]-3,8-diazabicyclo[3.2.1]octan-8-yl]pyridin-2-yl)oxy]ethyl]piperazin-1-yl)ethoxy]-1H-pyrazol-1-yl]-3-methylbutanoyl]-4-hydroxy-N-[(1S)-1-[4-(4-methyl-1,3-thiazol-5-yl)phenyl]ethyl]pyrrolidine-2-carboxamide]
[1]
  DC50: > 30 nM
BRM degradation, SW1573 cells, when tested at the top concentration of between 0.3 and 10 μM, read-out: Dmax (%) (% degraded)
  Dmax: > 75%

## Cc1ncsc1-c1ccc([C@H](C)NC(=O)[C@@H]2C[C@@H](O)CN2C(=O)[C@H](c2cc(OCC#CC34CC(CNC5CC(Oc6cc(N7C8CC[C@@H]7CN(c7cc(-c9ccccc9O)nnc7N)C8)ccn6)C5)(C3)C4)no2)C(C)C)cc1 (stereo partly drawn) [compound 381, (2S,4R)-1-((2S)-2-(3-((3-(3-((((1r,3S)-3-((4-(3-(3-amino-6-(2-hydroxyphenyl)pyridazin-4-yl)-3,8-diazabicyclo[3.2.1]octan-8-yl)pyridin-2-yl)oxy)cyclobutyl)amino)methyl)bicyclo[1.1.1]pentan-1-yl)prop-2-yn-1-yl)oxy)isoxazol-5-yl)-3-methylbutanoyl)-4-hydroxy-N-((S)-1-(4-(4-methylthiazol-5-yl)phenyl)ethyl)pyrrolidine-2-carboxamide]
% degraded, when tested at the top concentration of between 0.3 and 10 μM
  BRM Dmax (%): A (A > 75)
[5]
  DC50: 10 to 30 nM
